Where two headings read alike, the source gives them in different places.
Experiments:
MES-induced seizures [1] = experiment: animal or person; format: in vivo
Method: (§1) Animals were group-housed (2–4 mice or 3–4 rats per cage) in plastic cages and maintained under controlled temperature (18–25 °C), humidity, ventilation, and lighting (12 h light/dark cycle). They had free access to water and Certified Rodent Chow (Teklad Rodent Chow). Upon arrival, the animals were examined to ensure good health status and were acclimated to the facility for at least 5 days before being subjected to the MES protocol. All experiments were conducted in accordance with guidelines set by the Canadian Council on Animal Care and approved by the Xenon Animal Care Committee.
(§2) Drugs were administered by the intraperitoneal route (IP; dissolved in sterile saline) or oral route (PO; dissolved in 0.5% methylcellulose + 0.2% Tween 80 in DI water) in a volume of 10 mL/kg. Control animals received the appropriate vehicle. The doses and pre-treatment times for each drug, detailed in Table 2, were determined based on in-house data or, in some cases, from the publicly available PANACHE database.
(§3) The MES assay is widely used in the search for anticonvulsant substances. This animal model for generalized tonic–clonic seizures assesses a compound’s ability to prevent seizure spread. […] Before the electroshock stimulation, the eyes were anesthetized with a topical application of 0.5% proparacaine hydrochloride (one drop per eye). Animals were then restrained; the corneal electrodes were applied, and the shock was administered. An MES-induced seizure was characterized by an initial generalized tonic seizure with a hindlimb tonic extensor component.
(§4) The protocols for administering PO or IP doses of the vehicle or drug are described in […]. These doses were administered 0.5–2 h before the application of electric stimulation. An animal was considered protected from MES-induced seizures if the hindlimb tonic extensor component of the seizure was abolished, and it was scored as “0”. […] Seizure induction and scoring were performed by an experimenter who was blinded to treatment conditions.
(§5) After being subjected to the stimulation protocol, rodents were anesthetized by isoflurane inhalation until they reached a surgical plane of anesthesia. Approximately 0.5 mL of blood was collected via cardiac puncture and transferred to EDTA-coated tubes on ice. Animals were then euthanized by cervical dislocation, and their brains were removed, weighed, and immediately frozen on dry ice. At the end of sample collection, blood was centrifuged at 4000 rpm for 10 min at 4 °C, and the plasma was separated. All samples were stored at −80 °C until the time of bioanalysis.
(§6) Plasma samples were extracted for analysis using a protein precipitation method with acetonitrile. A total of 50 µL of diluted plasma samples was mixed with 50 µL of an internal standard (IS) solution in a 1:1 mixture of acetonitrile and water. A total of 200 µL of acetonitrile was then added to the mixture, which was vortexed for 30 s. The samples were centrifuged at 13,000 rpm for 20 min, decanted into a 96-well plate, and further centrifuged at 4000 rpm for 20 min. The samples were then analyzed using ultra-high-performance electrospray ionization tandem mass spectrometry (UHPLC-ESI-MS/MS).
(§7) Brains were homogenized in a 1:1 mixture of acetonitrile and water (2 mL per mouse brain) using the T18 ULTRA-TURRAX (IKA, Staufen im Breisgau, Germany) homogenizer for about 1 min. The homogenate was centrifuged at 13,000 rpm for 20 min, and 50 µL of the supernatant was treated in the same way as the plasma samples for analysis.
(§8) At 1.5 min, the mobile phase composition was switched back to 50% B at 1.6 min and then held at 50% B until 2.5 min. The flow rate used throughout the experiment was 0.4 mL/min. […] Each compound was matched with a proprietary co-eluting internal standard. The UHPLC-ESI MS/MS system was controlled, and samples were quantified using Analyst 1.6.

MES-induced seizures [2] = experiment: Alternating current maximal electroshock seizure assay (AC-MES) in rats with plasma and brain exposure; format: in vivo, Sprague-Dawley rats; details: for ED50: single PO dose, pre-treatment 0.5-2 h per Table 2, read-out: ED50 (median effective dose)
Method: as §1, §2, §3, §4, §5, §6, §7, §8

in vivo [3] = details: CF-1, mouse
Method: as §5, §6, §7, §8

in vivo [4] = details: Sprague-Dawley, rat
Method: as §5, §6, §7, §8

[5] = Plasma protein binding, rat; details: Xenon in-house data
Excerpt: (§9) PPB data is available in Supplemental Table S1.
(§10) Supplemental Table S1. Summary of effective plasma concentrations, plasma protein binding (PPB), and unbound plasma concentrations (Cp,u) for the ASMs tested in mice, rats and humans.
(§11) *For mouse and rat, plasma EC50 from the MES assay at one time point after a single dose is shown. For human, literature-reported therapeutic plasma concentrations are shown. […]
(§12) mouse, for which published data were used. For human, published data is shown.
(§13) *** Cp,u values for rodents have been calculated based on MES EC50. Cp,u values for humans represent the lower and upper bounds of reported therapeutic plasma concentrations, adjusted for PPB, as reported in clinical pharmacokinetic

MES-induced seizures [6] = experiment: animal or person; format: in vivo; details: mouse MES; single dose, route and pre-treatment time per Table 2 (PO or IP, 0.25-2 h); read-out: ED50 (median effective dose)
[7] = mouse plasma, cited from earlier work
[8] = human plasma; published data ref 36-47; cited from earlier work
[9] = human, cited from earlier work; for Effective plasma concentration: literature-reported therapeutic plasma concentrations ref 36-47; for Cp,u (unbound therapeutic plasma concentration): lower and upper bounds of therapeutic plasma concentrations adjusted for PPB ref 36-47
[10] = Plasma protein binding, mouse; details: Xenon in-house data
Excerpt: as §9, §10, §11, §12, §13

[11] = design: method as in earlier work; details: rat plasma; published data ref 34; cited from earlier work
[12] = mouse MES, brain concentration for 50% probability of seizure protection, read-out: EC50 Brain
[13] = mouse MES, plasma concentration for 50% probability of seizure protection, one time point after single dose, read-out: EC50 Plasma
[14] = mouse, calculated based on MES EC50 and PPB, read-out: Cp,u EC50 (unbound plasma concentration)
[15] = Rattus norvegicus, read-out: Cp,u EC50 (unbound plasma concentration)
[16] = Rattus norvegicus, read-out: EC50 Brain
[17] = Rattus norvegicus, read-out: EC50 Plasma
[18] = rat MES, brain concentration for 50% probability of seizure protection, read-out: EC50 Brain
[19] = rat MES, plasma concentration for 50% probability of seizure protection, one time point after single dose, read-out: EC50 Plasma
[20] = rat, calculated based on MES EC50 and PPB, read-out: Cp,u EC50 (unbound plasma concentration)

SMILES	EC50 (MES-induced seizures [1]; [12]) [µM]	EC50 (MES-induced seizures [1]; [13]) [µM]	EC50 (MES-induced seizures [1]; [14]) [µM]	EC50 (MES-induced seizures [2]; [15]) [µM]	EC50 (MES-induced seizures [2]; [16]) [µM]	EC50 (MES-induced seizures [2]; [17]) [µM]	Kp (in vivo [3]; in vivo)	Kp (in vivo [4]; in vivo)	PPB (% bound) [5] [% bound]	ED50 (MES-induced seizures [6]) [mg/kg]	PPB (% bound) [8] [% bound]	Effective plasma concentration [9] [µM]	Cp,u (unbound therapeutic plasma concentration) [9] [µM]	EC50 (MES-induced seizures [2]; [18]) [µM]	EC50 (MES-induced seizures [2]; [19]) [µM]	ED50 (MES-induced seizures [2]; rat MES) [mg/kg]	EC50 (MES-induced seizures [2]; [20]) [µM]	Kp (in vivo [3]; brain and plasma, oral)	Kp (in vivo [4]; brain and plasma, oral)	PPB (% bound) [10] [% bound]	further results
NC(=O)O[C@@H](Cn1ncnn1)c1ccccc1Cl [CNB, cenobamate]	24.9	66	40.1	8.93	10.7	15.9	0.38	0.67	46.1	7.05	60.0	89.3 to 170	35.7 to 68.0								Doses giving significant reduction of MES-induced seizures (fraction seizing) (MES-induced seizures [2]; rat MES, vs vehicle, Kruskal-Wallis/Dunn): 18 mg/kg; PPB (% bound) ([7]; published data ref 35): 43.2 % bound
O=C1NC(=O)C(c2ccccc2)(c2ccccc2)N1 [PHT, phenytoin]	30.6	27.6	5.37						80.6	9.81	90.0	40 to 79	4.00 to 7.90	2.66	3.2	16.9	0.89	1.11	0.83	80.3	
CCCC(CCC)C(=O)O [VPA, valproic acid]		1670	1640	647	307	1310				196	90.0	346 to 693	34.6 to 69.3					0.38	0.24		EC50 (MES-induced seizures [1]; Mus musculus, read-out: EC50 Brain): 630 µM; PPB (% bound) [11]: 66.5 % bound; PPB (% bound) ([7]; published data ref 34): 12.0 % bound
NC(=O)N1c2ccccc2C=Cc2ccccc21 [CBZ, carbamazepine]	32.5	13.8	7.04						63.9	9.67	75.0	17 to 51	4.25 to 12.8	4.7	4.55	4.39	1.63	2.36	1.03	52.4	
COC[C@@H](NC(C)=O)C(=O)NCc1ccccc1 [LSM, lacosamide]	14.8	19.3	15.6	22.2	12.2	24.9	0.77	0.49	22.9	15.2	13.4									21.8	
CCOC(=O)Nc1ccc(NCc2ccc(F)cc2)cc1N [RTG, retigabine]		2.26	0.52	0.2		1.46			85.1		80.0	1.98 to 3.99								86.2	

Reference: PMC12346480, “The Pharmacokinetic and Pharmacodynamic Relationship of Clinically Used Antiseizure Medications in the Maximal Electroshock Seizure Model in Rodents” (International Journal of Molecular Sciences, 2025)
